Common to all, as to format: cell-based
Data set [1] deals with Huh-7 cells containing HCV Coni subgenomic replicon (GS4.1 cells). Description: HCV replicon assay. The following applies: GS4.1 cells, 72 hours incubation, NS4A expression by ELISA, read-out: HCV Replicon EC50. As to the method: (§1) Huh-7 cells containing HCV Coni subgenomic replicon (GS4.1 cells), (C. Seeger; Fox Chase University, Philadelphia, Pa., USA), are grown in Dulbecco's Modified Eagle Medium (DMEM) supplemented with 10% fetal bovine serum (FBS), 2 mM L-glutamine, 110 mg/L sodium pyruvate, 1× non-essential amino acids, 100 U/mL penicillin-streptomycin and 0.5 mg/mL G418 (Invitrogen). For dose-response testing, the cells are seeded in 96-well plates at 7.5×10^3 cells/well in a volume of 50 μL and incubated at 37° C./5% CO2. Three hours after plating, 50 μL of ten 2-fold serial dilutions of compounds (highest concentration, 75 μM) are added and cell cultures were incubated at 37° C./5% CO2 in the presence of 0.5% DMSO. Alternatively, compounds are tested at a single concentration of 15 μM. In all cases, Huh-7 cells lacking the HCV replicon served as negative control. The cells are incubated in the presence of compounds for 72 hours after which they were monitored for expression of the NS4A protein by enzyme-linked immunosorbent assay (ELISA). For this, the plates were then fixed for 1 min with 1:1 acetone:methanol, washed twice with phosphate-buffered saline (PBS), 0.1% Tween 20, blocked for 1 hour at room temperature with TNE buffer containing 10% FBS and then incubated for 2 h at 37° C. with the anti-NS4A mouse monoclonal antibody A-236 (ViroGen) diluted in the same buffer. After washing three times with PBS, 0.1% Tween 20, the cells are incubated 1 hour at 37° C. with anti-mouse immunoglobulin G-peroxidase conjugate in TNE, 10% FBS. After washing as described above, the reaction is developed with O-phenylenediamine (Zymed). The reaction is stopped after 30 minutes with […] and the absorbance is read at 492 nm using a Sunrise Tecan spectrophotometer. EC50 values are determined from the % inhibition versus concentration data using a sigmoidal non-linear regression analysis based on four parameters with Tecan Magellan software. When screening at a single concentration, the results are expressed as % inhibition at 15 μM. For cytotoxicity evaluation, GS4.1 cells are treated with compounds as described above and cellular viability was monitored using a Cell Titer 96 AQueous One Solution Cell Proliferation Assay (Promega). CC50 values are determined from the % cytotoxicity versus concentration data with Tecan Magellan software as described above.
Compounds presented in the table below were assayed according to the replicon assay described above.
Background: A replicon is a self-replicating genome or part of one, used to study replication in cells.

Data set [2] can be described thus: Cytotoxicity evaluation in GS4.1 cells (Cell Titer 96 AQueous One Solution Cell Proliferation Assay). As to conditions: human, cellular viability, treated as in replicon assay, read-out: HCV Replicon CC50. As to the method: as §1
For a further data set, the system named is GS4.1 cells. The data set is described as above. The following applies: cellular viability, treated as in replicon assay, read-out: HCV Replicon CC50. As to the method: as §1

The structures appear in SMILES notation. Like-named read-outs stand apart in the source and are kept apart here.

As a reminder, the EC50 is the concentration that produces a half-maximal response. In general, CC50 refers to the concentration giving 50% cytotoxicity.

As for `CCOC(=O)[C@H](CC)NP(=O)(N[C@H](CC)C(=O)OCC)OC[C@H]1O[C@@H](n2cnc3c(OC)nc(N)nc32)C(C)(O)C1O` (some centres unmarked) [Compound 63], the EC50 in data set [1] (Hepatitis C virus, Huh-7, 72 h) lay within 0.1 to 1 µM. In addition, in data set [2], the CC50 at 72 h was more than 75 µM.

For `CCOC(=O)[C@H](CC(C)C)NP(=O)(N[C@H](CC(C)C)C(=O)OCC)OC[C@H]1O[C@@H](n2cnc3c(OCC)nc(N)nc32)C(C)(O)C1O` (some centres unmarked) [Compound 64], in data set [1] (Hepatitis C virus, Huh-7, 72 h), the EC50 is less than 0.1 µM. In data set [2], the half-maximal cytotoxic concentration (CC50) at 72 h was more than 75 µM.

In the case of `CCOC(=O)[C@H](CC(C)C)NP(=O)(N[C@@H](CC(C)C)C(=O)OCC)OC[C@H]1O[C@@H](n2cnc3c(OC)nc(N)nc32)C(C)(O)C1O` (some centres unmarked) [Compound 65], the concentration for a half-maximal effect (EC50) in data set [1] (Hepatitis C virus, Huh-7, 72 h) is less than 0.1 µM. Further, in data set [2], the CC50 at 72 h was more than 75 µM.

Turning to `CCOC(=O)[C@@H](CC(C)C)NP(=O)(N[C@H](CC(C)C)C(=O)OCC)OC[C@H]1O[C@@H](n2cnc3c(OC)nc(N)nc32)C(C)(O)C1O` (some centres unmarked) [Compound 66], the EC50 in data set [1] was 0.1 to 1 µM. In the data set on GS4.1 cells, the CC50 is not above 75 µM.

Take `CCOC(=O)[C@@H](NP(=O)(N[C@H](C(=O)OCC)C(C)CC)OC[C@H]1O[C@@H](n2cnc3c(N4CCCC4)nc(N)nc32)C(C)(O)C1O)C(C)CC` (some centres unmarked) [Compound 67]: in data set [1] (Hepatitis C virus, Huh-7, 72 h), the concentration giving a half-maximal response (EC50) was in the range of 0.1 to 1 µM. The CC50 at 72 h in data set [2] is more than 75 µM.

For `CCOC(=O)[C@@H](NP(=O)(N[C@H](C(=O)OCC)C(C)C)OC[C@H]1O[C@@H](n2cnc3c(N4CCCC4)nc(N)nc32)C(C)(O)C1O)C(C)C` (some centres unmarked) [Compound 68], in data set [1] (Hepatitis C virus, Huh-7, 72 h), the EC50 is less than 0.1 µM. In data set [2], the CC50 at 72 h is more than 75 µM.

On to `CCOC(=O)[C@H](Cc1ccccc1)NP(=O)(N[C@@H](Cc1ccccc1)C(=O)OCC)OC[C@H]1O[C@@H](n2cnc3c(N4CCCC4)nc(N)nc32)C(C)(O)C1O` (some centres unmarked) [Compound 69], for which, in data set [1] (Hepatitis C virus, Huh-7, 72 h), the EC50 is less than 0.1 µM. Also, in data set [2], the CC50 at 72 h was not above 75 µM.

For the molecule `CCOC(=O)C(NP(=O)(NC(C(=O)OCC)C(C)C)OC[C@H]1O[C@@H](n2cnc3c(NC4CC4)nc(N)nc32)C(C)(O)C1O)C(C)C` (some centres unmarked) [Compound 70], in data set [1] (Hepatitis C virus, Huh-7, 72 h), the half-maximal effective concentration (EC50) was 0.1 to 1 µM. In addition, the CC50 at 72 h in data set [2] is more than 75 µM.

As for `CCOC(=O)[C@H](Cc1ccccc1)NP(=O)(N[C@@H](Cc1ccccc1)C(=O)OCC)OC[C@H]1O[C@@H](n2cnc3c(N4CCOCC4)nc(N)nc32)C(C)(O)C1O` (some centres unmarked) [Compound 71], the EC50 in data set [1] (Hepatitis C virus, Huh-7, 72 h) was less than 0.1 µM. Besides, in data set [2], the 50% cytotoxic concentration (CC50) at 72 h is more than 75 µM.

For `CCOC(=O)[C@@H](NP(=O)(N[C@H](C(=O)OCC)C(C)C)OC[C@H]1O[C@@H](n2cnc3c(N4CCOCC4)nc(N)nc32)C(C)(O)C1O)C(C)C` (some centres unmarked) [Compound 72], the EC50 in data set [1] (Hepatitis C virus, Huh-7, 72 h) was in the range of 0.1 to 1 µM. Moreover, in data set [2], the cytotoxic concentration (CC50) at 72 h was more than 75 µM.

Take `COc1nc(N)nc2c1ncn2[C@@H]1O[C@H](COP(N)(=O)OCCSC(=O)C(C)(C)CO)C(O)C1(C)O` (some centres unmarked) [Compound 73]: the EC50 in data set [1] (Hepatitis C virus, Huh-7, 72 h) is 0.1 to 1 µM. For the same molecule, in data set [2], the half-maximal cytotoxic concentration (CC50) at 72 h was more than 75 µM.

For `CCOC(=O)CCNP(=O)(OCCSC(=O)C(C)(C)CO)OC[C@H]1O[C@@H](n2cnc3c(OC)nc(N)nc32)C(C)(O)C1O` (some centres unmarked) [Compound 74], in data set [1] (Hepatitis C virus, Huh-7, 72 h), the EC50 was 0.1 to 1 µM. For the same molecule, in data set [2], the CC50 at 72 h was more than 75 µM.

For the molecule `CC(C)NP(=O)(OCCSC(=O)C(C)(C)CO)OC[C@H]1O[C@@H](n2cnc3c(NC4CC4)nc(N)nc32)C(C)(O)C1O` (some centres unmarked) [Compound 75], in data set [1] (Hepatitis C virus, Huh-7, 72 h), the EC50 fell in the range of 0.1 to 1 µM. Besides, the half-maximal cytotoxic concentration (CC50) at 72 h in data set [2] was more than 75 µM.

Regarding `CCOC(=O)CCNP(=O)(OCCSC(=O)C(C)(C)CO)OC[C@H]1O[C@@H](n2cnc3c(NC4CC4)nc(N)nc32)C(C)(O)C1O` (some centres unmarked) [Compound 76], the EC50 in data set [1] (Hepatitis C virus, Huh-7, 72 h) fell in the range of 0.1 to 1 µM. Also, the CC50 at 72 h in data set [2] is more than 75 µM.

As to `CCOC(=O)[C@@H](NP(=O)(N[C@H](C(=O)OCC)C(C)C)OC[C@H]1O[C@@H](n2cnc3c(SC)nc(N)nc32)C(C)(O)C1O)C(C)C` (some centres unmarked) [Compound 77], the 50% effective concentration (EC50) in data set [1] (Hepatitis C virus, Huh-7, 72 h) was 0.1 to 1 µM. Moreover, the CC50 at 72 h in data set [2] was more than 75 µM.

Regarding `CN(N)c1nc(N)nc2c1ncn2[C@@H]1O[C@H](COP(=O)(NCc2ccccc2)OCCSC(=O)C(C)(C)CO)C(O)C1(C)O` (some centres unmarked) [Compound 78], the EC50 in data set [1] (Hepatitis C virus, Huh-7, 72 h) was in the range of 0.1 to 1 µM. Also, in data set [2], the CC50 at 72 h was more than 75 µM.

`CC(C)NP(=O)(OCCSC(=O)C(C)(C)CO)OC[C@H]1O[C@@H](n2cnc3c(Cl)nc(N)nc32)C(C)(O)C1O` (some centres unmarked) [Compound 79]: the EC50 in data set [1] (Hepatitis C virus, Huh-7, 72 h) is less than 0.1 µM. In addition, the CC50 at 72 h in data set [2] is not above 75 µM.

In the case of `CCOC(=O)[C@H](CC(C)C)NP(=O)(N[C@@H](CC(C)C)C(=O)OCC)OC[C@H]1O[C@@H](n2ccc(=O)[nH]c2=O)C(C)(O)C1O` (some centres unmarked) [Compound 80], the 50% effective concentration (EC50) in data set [1] (Hepatitis C virus, Huh-7, 72 h) is 1 to 10 µM. For the same molecule, in data set [2], the CC50 at 72 h is more than 75 µM.

On to `C#CC1(F)C(O)[C@@H](COP(=O)(N[C@@H](CC(C)C)C(=O)OCC)N[C@H](CC(C)C)C(=O)OCC)O[C@H]1n1cnc2c(NC3CC3)nc(N)nc21` (some centres unmarked) [Compound 81], for which the EC50 in data set [1] (Hepatitis C virus, Huh-7, 72 h) was in the range of 1 to 10 µM. In data set [2], the CC50 at 72 h is not above 75 µM.
